Experimental data from ChEMBL document CHEMBL6178015, “Discovery of a Novel Serine-Targeting Covalent Inhibitor against HCES2A for Treating Drug-induced Diarrhea and Ulcerative Colitis” (J Med Chem, 2025).

Key:
[1] = Inhibition of human CES2A using fluorescein diacetate as substrate preincubated for 3 mins followed by substrate addition and measured after 30 mins by fluorescence microplate reader
[2] = Inhibition of human CES1A using NLMe as substrate preincubated for 3 mins followed by substrate addition and measured after 20 mins by chemiluminescence analysis
Homo sapiens = species on record: Homo sapiens; experiment: Selectivity index, ratio of IC50 for inhibition of human CES1A to IC50 for inhibition of human CES2A

| IC50 [1] | IC50 [2] | Ratio IC50 (Homo sapiens) | SMILES |
| --- | --- | --- | --- |
| 383 nM | – | – | C=CCOC(=O)Nc1ccc(C)cc1-c1cc2c(C(=O)CCCCCC)cccc2o1 |
| 623 nM | – | – | CCCCCCC(=O)c1cccc2oc(-c3cc(C)ccc3NC(=O)OCCCC)cc12 |
| 362 nM | – | – | CCCCCCOC(=O)Nc1ccc(C)cc1-c1cc2c(C(=O)CCCCCC)cccc2o1 |
| > 10000 nM | – | – | CCCCCCOC(=O)Nc1ccccc1-c1cc2c(C(=O)CCCCCC)cccc2o1 |
| 983 nM | – | – | CCCC(=O)c1cccc2oc(-c3cc(C)ccc3NC(=O)OCCCl)cc12 |
| 1.04 nM | > 10000 nM | > 9600 | CCCCCCC(=O)c1cccc2oc(-c3cc(C)ccc3NC(=O)OCC(C)C)cc12 |

The next lines start with the compound.

| SMILES | IC50 [1] | IC50 [2] | Ratio IC50 (Homo sapiens) |
| --- | --- | --- | --- |
| CCCCCCCCC(=O)c1cccc2oc(-c3ccccc3N)cc12 | 881 nM | – | – |
| CCCCCCC(=O)c1cccc2oc(-c3ccccc3NC(=O)OCc3ccccc3)cc12 | 616 nM | – | – |
| CCCCCCCCC(=O)c1cccc2oc(-c3cc(OC)ccc3OC(=O)N(C)C)cc12 | 0.189 nM | 239 nM | 1260 |
| CCCCCCC(=O)c1cccc2oc(-c3ccccc3NC(=O)OCCCl)cc12 | 56.6 nM | > 10000 nM | > 176 |
| CCCCCCC(=O)c1cccc2oc(-c3cc(C)ccc3NC(=O)OCC3c4ccccc4-c4ccccc43)cc12 | 2140 nM | – | – |
| CCCCCCC(=O)c1cccc2oc(-c3cc(C)ccc3NC(=O)OCc3ccccc3)cc12 | 3640 nM | – | – |
| CCCCCCC(=O)c1cccc2oc(-c3cc(C)ccc3N)cc12 | 612 nM | – | – |
| CCCC(=O)c1cccc2oc(-c3cc(C)ccc3N)cc12 | 3110 nM | – | – |
| CCCCCCC(=O)c1cccc2oc(-c3cc(OC)ccc3N)cc12 | 1970 nM | – | – |
| CCCCCCC(=O)c1cccc2oc(-c3ccccc3NC(=O)OCC(CC)CCCC)cc12 (configuration not stated) | 1340 nM | – | – |
